Legend:
[1] = Thermal stability, TG/DTA measurement; conditions: for thermal stability higher compared to Z-DOL (Comparative Example 10C) / thermal stability higher compared to Z-TETRAOL (Comparative Example 11C): difference of weight reduction temperatures; for Weight reduction temperature 5% / Weight reduction temperature 10% / Weight reduction temperature 20%: air 200 mL/min, 30° C. to 600° C., heating rate 10° C./min
[2] = in acetonitrile; cited from earlier work
[3] = Solubility to fluorine-based solvent (Vertrel XF), 1.0/0.5/0.1 parts by mass added; conditions: Vertrel XF [CF3(CHF)2CF2CF3], 25° C., ultrasonic waves 5 minutes, left 1 day, visual observation; 0.5 and 0.1 parts by mass per 100 parts
Protocol: Then, the resultant was left to stand for 1 day and solubility thereof was visually observed.
Then, the resultant was left to stand for 1 day and solubility thereof was visually observed, followed by evaluation based on the following evaluation criteria.
[Evaluation Criteria] • 0.5% by mass or more:
When 0.5 parts by mass of the ionic liquid was added, dissolution was found. • 0.1% by mass or more but less than 0.5% by mass:
When 0.5 parts by mass of the ionic liquid was added, no dissolution was found. However, when 0.1 parts by mass of the ionic liquid was added, dissolution was found. • Less than 0.1% by mass:
When 0.5 parts by mass of the ionic liquid was added, no dissolution was found. Moreover, when 0.1 parts by mass of the ionic liquid was added, no dissolution was found.

[4] = Solubility to solvents (Vertrel XF, n-hexane, ethanol); format: physicochemical; conditions: 25° C., visual observation after 1 day; for Solubility Fluorine-based solvent: Vertrel XF, 0.2 parts by mass per 100 parts; for Solubility Ethanol / Solubility n-Hexane: 0.5 parts by mass per 100 parts
Protocol: To a predetermined mass of Vertrel XF, n-hexane, or ethanol, each of the ionic liquids was added and was irradiated with ultrasonic waves for 5 minutes. Then, the resultant was left to stand for 1 day and solubility thereof was visually observed.
Specifically, to 100 parts by mass of Vertrel XF (25° C.), 0.2 parts by mass of the ionic liquid was added and was irradiated with ultrasonic waves for 5 minutes. Then, the resultant was left to stand for 1 day and solubility thereof was visually observed, followed by evaluation based on the following evaluation criteria. In the cases of n-hexane and ethanol, each of the ionic liquids (0.5 parts by mass) was added to 100 parts by mass of n-hexane or ethanol at 25° C. The resultant was irradiated with ultrasonic waves for 5 minutes. Then, the resultant was left to stand for 1 day and solubility thereof was visually observed, followed by evaluation based on the following evaluation criteria.
<<Vertrel XF>> • 0.2% by mass or more:
When 0.2 parts by mass of the ionic liquid was added, dissolution was found. • Less than 0.2% by mass:
When 0.2 parts by mass of the ionic liquid was added, no dissolution was found.
<<n-Hexane and Ethanol>> • 0.5% by mass or more:
When 0.5 parts by mass of the ionic liquid was added, dissolution was found. • Less than 0.5% by mass:

Row | Molecule | Weight reduction temperature 5% [1] [°C] | Weight reduction temperature 10% [1] [°C] | Weight reduction temperature 20% [1] [°C] | also measured
1 | CCCCCCCCCCCCCCCCCC[n+]1ccn(CCCO)c1CCCCCCCCCCCCCCCCC.O=S(=O)([N-]S(=O)(=O)C(F)(F)C(F)(F)C(F)(F)C(F)(F)F)C(F)(F)C(F)(F)C(F)(F)C(F)(F)F |  |  |  | thermal stability higher compared to Z-DOL (Comparative Example 10C) [1]: ≥ 160 °C; thermal stability higher compared to Z-TETRAOL (Comparative Example 11C) [1]: ≥ 85 °C
2 | CCCCCCCCCCCCCC[N+](C)(C)CCCO.O=S(=O)([N-]S(=O)(=O)C(F)(F)C(F)(F)C(F)(F)C(F)(F)F)C(F)(F)C(F)(F)C(F)(F)C(F)(F)F |  |  |  | thermal stability higher compared to Z-DOL (Comparative Example 10C) [1]: ≥ 145 °C; thermal stability higher compared to Z-TETRAOL (Comparative Example 11C) [1]: ≥ 90 °C
3 | CCCCCCCCCCCCCCCCCC[N+](C)(C)CCCO.O=S(=O)([N-]S(=O)(=O)C(F)(F)C(F)(F)C(F)(F)C(F)(F)F)C(F)(F)C(F)(F)C(F)(F)C(F)(F)F |  |  |  | thermal stability higher compared to Z-DOL (Comparative Example 10C) [1]: ≥ 150 °C; thermal stability higher compared to Z-TETRAOL (Comparative Example 11C) [1]: ≥ 90 °C
4 | CCCCCCCCCCCCCCCCCC[N+]1(CCCO)CCCC1.O=S(=O)([N-]S(=O)(=O)C(F)(F)C(F)(F)C(F)(F)C(F)(F)F)C(F)(F)C(F)(F)C(F)(F)C(F)(F)F |  |  |  | thermal stability higher compared to Z-DOL (Comparative Example 10C) [1]: ≥ 160 °C; thermal stability higher compared to Z-TETRAOL (Comparative Example 11C) [1]: ≥ 100 °C
5 | CCCCCCCCCCCCCCCCCC[n+]1ccn(CCCO)c1.O=S(=O)([N-]S(=O)(=O)C(F)(F)C(F)(F)C(F)(F)C(F)(F)F)C(F)(F)C(F)(F)C(F)(F)C(F)(F)F |  |  |  | thermal stability higher compared to Z-DOL (Comparative Example 10C) [1]: ≥ 150 °C; thermal stability higher compared to Z-TETRAOL (Comparative Example 11C) [1]: ≥ 90 °C
6 | O=S(=O)(C(S(=O)(=O)C(F)(F)F)S(=O)(=O)C(F)(F)F)C(F)(F)F [(CF3SO2)3CH] |  |  |  | pKa [2]: −3.7
7 | CCCCCCCCCCCCCCCCCC[n+]1ccn(CCCC)c1.O=S1(=O)[N-]S(=O)(=O)C(F)(F)C(F)(F)C1(F)F [Comparative Example 2A, hexafluorocyclopropane-1,3-bis(sulfonyl)imide-1-butyl-3-n-octadecylimidazolium, reference compound] | 347.2 | 367.0 | 387.8 | Fluorine-based solvent solubility [3]: Less than 0.1% by % by mass
8 | CCCCCCCCCCCCCCCCCCC1CCCCN2CCCN=C12.O=S1(=O)NS(=O)(=O)C(F)(F)C(F)(F)C1(F)F (stereo not drawn) [Comparative Example 4A, hexafluorocyclopropane-1,3-bis(sulfonyl)imide-6-octadecyl-1,8-diazabicyclo[5.4.0]-7-undecenium, reference compound] | 346.3 | 384.1 | 414.0 | Fluorine-based solvent solubility [3]: Less than 0.1% by % by mass
9 | CCCCCCCCCCCCCCCCCCn1ccnc1CCCCCCCCCCCCCCCCC.O=S1(=O)NS(=O)(=O)C(F)(F)C(F)(F)C1(F)F [Comparative Example 7A, hexafluorocyclopropane-1,3-bis(sulfonyl)imide-1-octadecyl-2-heptadecylimidazolium, reference compound] | 303.7 | 366.4 | 405.0 | Solubility Fluorine-based solvent [4]: Less than 0.2% by mass; Solubility Ethanol [4]: ≥ 0.5% by mass; Solubility n-Hexane [4]: < 0.5% by mass
10 | CCCCCCCCCCCCCCCCCCN.O=S(=O)(NS(=O)(=O)C(F)(F)C(F)(F)C(F)(F)C(F)(F)F)C(F)(F)C(F)(F)C(F)(F)C(F)(F)F [Comparative Example 8A, bis(nonafluorobutanesulfonyl)imide-octadecylammonium, reference compound] | 311.8 | 329.8 | 348.0 | Solubility Fluorine-based solvent [4]: Less than 0.2% by mass; Solubility Ethanol [4]: ≥ 0.5% by mass; Solubility n-Hexane [4]: < 0.5% by mass
11 | CCCCCCCCCCCCCCCCCC[n+]1ccn(CCCO)c1.O=S(=O)([N-]S(=O)(=O)C(F)(F)C(F)(F)C(F)(F)C(F)(F)F)C(F)(F)C(F)(F)C(F)(F)C(F)(F)F [Example 2A, bis(nonafluorobutanesulfonyl)imide1-3′hydroxypropyl-3-octadecylimidazolium] | 327.7 | 361.7 | 389.3 | 
12 | CCCCCCCCCCCCCCCCCC[N+]1(CCCO)CCCC1.O=S(=O)([N-]S(=O)(=O)C(F)(F)C(F)(F)C(F)(F)C(F)(F)F)C(F)(F)C(F)(F)C(F)(F)C(F)(F)F [Example 3A, bis(nonafluorobutanesulfonyl)imide-N-3′hydroxypropyl-N-octadecylpyrrolidinium] | 349.8 | 370.8 | 387.6 | 
13 | CCCCCCCCCCCCCCCCCCC1CCCCN2CCC[N+](CCCO)=C12.O=S(=O)([N-]S(=O)(=O)C(F)(F)C(F)(F)C(F)(F)C(F)(F)F)C(F)(F)C(F)(F)C(F)(F)C(F)(F)F (stereo not drawn) [Example 5A, bis(nonafluorobutanesulfonyl)imide-6-octadecyl-8-3′-hydroxypropyl-1,8-diazabicyclo[5.4 0.0]-7-undecenium] | 326.2 | 360.8 | 387.7 | thermal stability higher compared to Z-DOL (Comparative Example 10C) [1]: ≥ 160 °C; thermal stability higher compared to Z-TETRAOL (Comparative Example 11C) [1]: ≥ 85 °C
14 | CCCCCCCCCCCCCCCCCC[n+]1ccn(CCCO)c1CCCCCCCCCCCCCCCCC.O=S(=O)([N-]S(=O)(=O)C(F)(F)C(F)(F)C(F)(F)C(F)(F)F)C(F)(F)C(F)(F)C(F)(F)C(F)(F)F [Example 8A, bis(nonafluorobutanesulfonyl)imide-1-3′hydroxypropyl-2-heptadecyl-3-octadecylimidazolium] | 327.8 | 364.3 | 398.8 | 
15 | CCCCCCCCCCCCCC[N+](C)(C)CCCO.O=S(=O)([N-]S(=O)(=O)C(F)(F)C(F)(F)C(F)(F)C(F)(F)F)C(F)(F)C(F)(F)C(F)(F)C(F)(F)F [Example 9A, bis(nonafluorobutanesulfonyl)imide-N-3′hydroxypropyl-N,N-dimethyltetradecylammonium] | 340.0 | 359.0 | 375.0 | 
16 | CCCCCCCCCCCCCCCCCC[N+](C)(C)CCCO.O=S(=O)([N-]S(=O)(=O)C(F)(F)C(F)(F)C(F)(F)C(F)(F)F)C(F)(F)C(F)(F)C(F)(F)C(F)(F)F [Example 10A, bis(nonafluorobutanesulfonyl)imide-N-3′hydroxypropyl-N,N-dimethyloctadecylammonium] | 336.5 | 359.4 | 376.6 | 
17 | O=S(=O)(NS(=O)(=O)C(F)(F)C(F)(F)C(F)(F)C(F)(F)F)C(F)(F)C(F)(F)C(F)(F)C(F)(F)F [bis(nonafluorobutanesulfonyl)imide] |  |  |  | pKa [2]: 0.0
18 | O=S1(=O)NS(=O)(=O)C(F)(F)C(F)(F)C1(F)F [hexafluorocyclopropane-1,3-bis(sulfonyl)imide] |  |  |  | pKa [2]: −0.8
19 | F[B-](F)(F)F.[H+] [tetrafluoroboric acid] |  |  |  | pKa [2]: 1.8
20 | bis(nonafluorobutanesulfonyl)imide-1-dodecyl-2-undecyl-3-3′hydroxypropyloctadecylimidazolium [Example 7A] | 350.9 | 373.7 | 394.8 | 
21 | heptadecafluorooctanesulfonic acid-6-octadecyl-1,8-diazabicyclo[5.4.0]-7-undecenium | 361.9 | 382.7 | 403.5 | 
22 | heptadecafluorooctanesulfonic acid-6-octadecyl-1,8-diazabicyclo[5.4.0]-7-undecenium [Comparative Example 3A] |  |  |  | Fluorine-based solvent solubility [3]: Less than 0.1% by % by mass
23 | nonafluorobutanesulfonic acid-1-octadecyl-2-heptadecylimidazolium | 338.2 | 365.9 | 390.1 | 
24 | nonafluorobutanesulfonic acid-1-octadecylimidazolium | 349.3 | 375.0 | 397.5 | 
25 | nonafluorobutanesulfonic acid-N,N,N-trimethyloctadecylammonium [Comparative Example 9A, reference compound] | 340.5 | 356.2 | 371.9 | 
26 | pentadecafluorooctanoic acid octadecylammonium [Comparative Example 5A, reference compound] | 206.9 | 215.8 | 223.4 | Fluorine-based solvent solubility [3]: Less than 0.1% by % by mass
27 | pentadecafluorooctanoic acid octadecylammonium [pentadecafluorooctanoic acid octadecylammonium] | 206.9 | 215.8 | 223.4 | 
28 | perfluorocyclopropane sulfoimide |  |  |  | pKa [2]: −0.8
